The text below walks through data of the supplement of paper PMC11414989.

Common to all, as to details: exposure window: 6 hpf to 120 hpf, static, assay age: 120 hpf (5 dpf)
The test system of test [1] is Danio rerio larvae (Tropical 5D). The test is described as follows: mean distance moved of exposed larvae, dark phase (µm per frame (1/25 s)); higher = more movement. The protocol:
(§1)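 Larval photomotor response in Tropical 5D wild-type zebrafish. Larvae were statically exposed to each chemical from 6 hpf to 5 dpf in 96-well plates; morphologically abnormal larvae were excluded. At 120 hpf, larvae were tracked with Ethovision XT (25 frames/s) over the 2nd cycle of 3 min light and 3 min dark. Values are the mean movement metric of exposed larvae per phase; same-plate control means (plate-dependent baseline) are given as conditions.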

Test [2] shares this test system. Kind of test: mean angular velocity of exposed larvae, dark phase (angular velocity (unit not stated)); higher = more movement. The protocol: as §1
The test system is the same in test [3]. Kind of test: mean angular velocity of exposed larvae, light phase (angular velocity (unit not stated)); higher = more movement. The protocol:
as §1

For test [4] the test system is unchanged. The test is described as follows: mean distance moved of exposed larvae, light phase (µm per frame (1/25 s)); higher = more movement. As for the experimental part: as §1

On to `CN(CC(=O)O)S(=O)(=O)C(F)(F)C(F)(F)C(F)(F)C(F)(F)C(F)(F)C(F)(F)C(F)(F)C(F)(F)F` [N-methylperfluoro-1-octanesulfonamidoacetic acid], for which the “mean distance moved of exposed larvae” value worked out at 6.38 in test [1] (0.25 µM) and 1.43 in test [4] (0.25 µM). In addition, the “mean angular velocity of exposed larvae” value in test [2] (0.25 µM) was determined as 0.256; in test [3] (0.25 µM), 0.0567.
For `O=S(=O)(O)CCC(F)(F)C(F)(F)C(F)(F)C(F)(F)F` [Sodium 1H,1H,2H,2H-perfluorohexane sulfonate(4:2)], the figures for the “mean distance moved of exposed larvae” value in test [1] (0.25 µM) and in test [4] (0.25 µM) were 44.7 and 4.72, respectively. Also, the “mean angular velocity of exposed larvae” value worked out at 1.24 in test [2] (0.25 µM) and 0.152 in test [3] (0.25 µM).
Regarding `O=C(O)C(F)(F)C(F)(F)C(F)(F)C(F)(F)C(F)(F)C(F)(F)C(F)(F)C(F)(F)C(F)(F)C(F)(F)C(F)(F)C(F)(F)C(F)(F)C(F)(F)C(F)(F)C(F)(F)C(F)(F)F` [Perfluoro-n-octadecanoic acid], the “mean distance moved of exposed larvae” value was 10.3 in test [1] (0.25 µM) and 3.51 in test [4] (0.25 µM). The “mean angular velocity of exposed larvae” value in test [2] (0.25 µM) was 0.571; in test [3] (0.25 µM), 0.146.
Consider `O=S(=O)(O)C(F)(F)C(F)(F)C(F)(F)C(F)(F)C(F)(F)C(F)(F)F` [Perfluorohexanesulfonic acid], for which the “mean distance moved of exposed larvae” value was found to be 11.6 in test [1] (0.015 µM); 20.4 in test [1] (0.046 µM); 13.8 in test [1] (0.14 µM); 17.2 in test [1] (0.41 µM); 23 in test [1] (1.23 µM); 22.9 in test [1] (3.7 µM). The “mean distance moved of exposed larvae” value was 25.2 in test [1] (11.1 µM); 8.39 in test [1] (33.3 µM); 3.78 in test [1] (66.5 µM); 3.15 in test [1] (100 µM); 2.17 in test [4] (0.015 µM); 2.46 in test [4] (0.046 µM). Besides, the “mean distance moved of exposed larvae” value in test [4] (0.14 µM) was determined as 1.98; in test [4] (0.41 µM), 2.2; in test [4] (1.23 µM), 3.86; in test [4] (3.7 µM), 3.31; in test [4] (11.1 µM), 4.59; in test [4] (33.3 µM), 8.09. Moreover, the “mean distance moved of exposed larvae” value came out at 3.27 in test [4] (66.5 µM) and 3.18 in test [4] (100 µM). In addition, the “mean angular velocity of exposed larvae” value in test [2] (0.015 µM) was 0.475; in test [2] (0.046 µM), 0.762; in test [2] (0.14 µM), 0.609; in test [2] (0.41 µM), 0.788; in test [2] (1.23 µM), 0.884; in test [2] (3.7 µM), 0.738. In addition, the “mean angular velocity of exposed larvae” value in test [2] (11.1 µM) came out at 0.954; in test [2] (33.3 µM), 0.358; in test [2] (66.5 µM), 0.271; in test [2] (100 µM) it was 0.173; in test [3] (0.015 µM), 0.178; in test [3] (0.046 µM), 0.0902. Moreover, the “mean angular velocity of exposed larvae” value in test [3] (0.14 µM) is 0.121; in test [3] (0.41 µM) it was 0.123; in test [3] (1.23 µM) it was 0.25; in test [3] (3.7 µM), 0.171; in test [3] (11.1 µM), 0.153; in test [3] (33.3 µM), 0.351. In addition, the “mean angular velocity of exposed larvae” value is 0.241 in test [3] (66.5 µM) and 0.114 in test [3] (100 µM).
As for `O=S(=O)(O)C(F)(F)C(F)(F)C(F)(F)C(F)(F)C(F)(F)F` [Sodium Perfluoro-1-pentanesulfonate], the figures for the “mean distance moved of exposed larvae” value in test [1] (0.25 µM) and in test [4] (0.25 µM) were 34.7 and 5.23, respectively. Further, the “mean angular velocity of exposed larvae” value came to 1.28 in test [2] (0.25 µM) and 0.235 in test [3] (0.25 µM).
On the same counts, the results for `O=P(O)(O)C(F)(F)C(F)(F)C(F)(F)C(F)(F)C(F)(F)C(F)(F)C(F)(F)C(F)(F)F` [Perfluorooctylphosphonic acid] are 29.9, 10.3, 0.959 and 0.308.
With `O=P(O)(O)C(F)(F)C(F)(F)C(F)(F)C(F)(F)C(F)(F)C(F)(F)C(F)(F)C(F)(F)Cl` [8-Chloroperfluorooctylphosphonic acid], the “mean distance moved of exposed larvae” value came out at 24.4 in test [1] (0.167 µM) and 7.53 in test [4] (0.167 µM). Further, the results for the “mean angular velocity of exposed larvae” value in test [2] (0.167 µM) and in test [3] (0.167 µM) were 0.9 and 0.234, respectively.
As to `NC(O)(C(F)(F)F)C(F)(F)F` [2-Aminohexafluoropropan-2-ol], the “mean distance moved of exposed larvae” value in test [1] (0.015 µM) was determined as 17.5; in test [1] (0.046 µM) it was 11.4; in test [1] (0.14 µM), 13; in test [1] (0.41 µM) it was 13; in test [1] (1.23 µM), 6.93; in test [1] (3.7 µM), 18.8. Moreover, the “mean distance moved of exposed larvae” value in test [1] (11.1 µM) came out at 11.2; in test [1] (33.3 µM), 18.3; in test [1] (66.5 µM) it was 14.6; in test [1] (100 µM) it was 27.2; in test [4] (0.015 µM), 1.1; in test [4] (0.046 µM), 0.932. Further, the “mean distance moved of exposed larvae” value came out at 0.925 in test [4] (0.14 µM); 0.917 in test [4] (0.41 µM); 0.251 in test [4] (1.23 µM); 1.12 in test [4] (3.7 µM); 0.717 in test [4] (11.1 µM); 1.18 in test [4] (33.3 µM). For the same molecule, the “mean distance moved of exposed larvae” value worked out at 0.668 in test [4] (66.5 µM) and 0.989 in test [4] (100 µM). The “mean angular velocity of exposed larvae” value in test [2] (0.015 µM) is 0.62; in test [2] (0.046 µM), 0.444; in test [2] (0.14 µM) it was 0.508; in test [2] (0.41 µM) it was 0.552; in test [2] (1.23 µM), 0.344; in test [2] (3.7 µM), 0.702. Besides, the “mean angular velocity of exposed larvae” value in test [2] (11.1 µM) was found to be 0.423; in test [2] (33.3 µM), 0.702; in test [2] (66.5 µM), 0.491; in test [2] (100 µM), 0.969; in test [3] (0.015 µM) it was 0.0444; in test [3] (0.046 µM) it was 0.0195. In addition, the “mean angular velocity of exposed larvae” value in test [3] (0.14 µM) was determined as 0.0424; in test [3] (0.41 µM), 0.0293; in test [3] (1.23 µM), 0.00969; in test [3] (3.7 µM), 0.0543; in test [3] (11.1 µM) it was 0.0181; in test [3] (33.3 µM), 0.0369. For the same molecule, the “mean angular velocity of exposed larvae” value was 0.0243 in test [3] (66.5 µM) and 0.0458 in test [3] (100 µM).
